Measurements: patent publication US20240246981A1, “[…] DERIVATIVES AS INHIBITORS OF […]-PEPTIDE CYCLOTRANSFERASE AND […]-PEPTIDE CYCLOTRANSFERASE LIKE PROTEIN” (Boehringer Ingelheim International GmbH, priority 2022, published 2024)
Where two headings read alike, the source gives them in different places.

Legend:
[1] = system: SIRPα signalling induced by A549 cells; assay: Assay B: SIRPα signalling assay using A549 cells; format: cell-based, human; conditions: Homo sapiens
Method: Two cell types are independently used: the Raji cell line (lymphoblastlike human cell line derived from B lymphocytes from a Burkitt's lymphoma patient in 1963) and A549 cells (adenocarcinomic human alveolar basal epithelial cells).
Test compounds were dissolved in 100% DMSO and serially diluted into a white 384-well microtiter cell culture plate (PerkinElmer #60076780 in case of Raji assay; PDL-coated plates Greiner #781945 in case of A549 assay). 5000 Raji cells (ATCC #CC86) or 5000 A549 cells (ATCC #CCL-185) in Assay Complete Cell Plating reagent 30 (DiscoverX 93-0563R30B) were added per well. The assay plate was incubated for 48 h at 37° C., 95% humidity and 5% CO2. 15000 reporter cells (Jurkat PathHunter SIRPα V1, DiscoverX #93-1135C19) were added to each well, and the plate was incubated for 5 h at 37° C., 95% humidity and 5% CO2. Bioassay reagent 1 of the PathHunter Bioassay detection kit (DiscoverX 93-0001) was added to each well of the plate using a multichannel pipette followed by a 15 min incubation at room temperature. Afterwards bioassay reagent 2 was added followed by 60 min incubation at room temperature (incubation in the dark).
The analysis of the data was performed using the luminescence signal generated by beta-galactosidase in the PathHunter reporter cell line. The luminescence measurement was done using a Pherastar Multi-Mode Reader. Dose-response curves & IC50 data were calculated with 4-parameter sigmoidal dose response formula.

[2] = Assay C: permeability in CACO-2 cells; format: in vitro ADME; conditions: human, pH 7.2; for Papp A→B at 2 h / Papp A→B: Caco-2, apical to basolateral; for efflux ratio at 2 h / efflux ratio: Caco-2
Method: Compounds are dissolved in appropriate solvent (like DMSO, 1-20 mM stock solutions). […] The transport solution (TL) is applied to the apical or basolateral donor side for measuring A-B or B-A permeability (3 filter replicates), respectively. Samples are collected at the start and end of experiment from the donor and at various time intervals for up to 2 hours also from the receiver side for concentration measurement by HPLC-MS/MS or scintillation counting. Sampled receiver volumes are replaced with fresh receiver solution.

[3] = system: SIRPα signalling induced by Raji cells; assay: Assay B: SIRPα signalling assay using Raji cells; format: cell-based, human; conditions: Homo sapiens
Method: Bioassay reagent 1 of the PathHunter Bioassay detection kit (DiscoverX 93-0001) was added to each well of the plate using a multichannel pipette followed by a 15 min incubation at room temperature. Afterwards bioassay reagent 2 was added followed by 60 min incubation at room temperature (incubation in the dark).
The analysis of the data was performed using the luminescence signal generated by beta-galactosidase in the PathHunter reporter cell line. The luminescence measurement was done using a Pherastar Multi-Mode Reader.

QPCTL = QPCTL (Homo sapiens (Human), UniProt Q9NXS2); assay: Assay A: biochemical QPCTL activity assay (MALDI-TOF MS); conditions: compounds of the invention, Table 2; read-out: Inhibition of QPCTL: IC50
QPCTL, sequence (Q9NXS2 whole entry): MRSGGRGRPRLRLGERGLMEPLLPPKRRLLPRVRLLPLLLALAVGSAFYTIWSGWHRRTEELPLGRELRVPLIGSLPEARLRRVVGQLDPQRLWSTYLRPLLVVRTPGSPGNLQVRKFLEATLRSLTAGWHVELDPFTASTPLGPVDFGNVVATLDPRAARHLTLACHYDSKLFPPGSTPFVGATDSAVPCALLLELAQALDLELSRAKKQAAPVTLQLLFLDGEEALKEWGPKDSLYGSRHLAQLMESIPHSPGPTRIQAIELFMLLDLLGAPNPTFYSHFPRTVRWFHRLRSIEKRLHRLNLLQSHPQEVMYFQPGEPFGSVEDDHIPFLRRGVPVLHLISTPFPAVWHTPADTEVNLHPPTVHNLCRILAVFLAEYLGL
Method: (§1) QPCT or QPCTL dependent conversion of N-terminal glutamine to pyroglutamate of CD47 was monitored via MALDI-TOF MS. Test compounds were dissolved in 100% DMSO and serially diluted into clear 1,536-well microtiter plates. Enzymatic reactions were set up in assay buffer containing 20 mM Tris pH 7.5, 0.1 mM TCEP, 0.01% BSA, and 0.001% Tween20. […] The plates were incubated for 10 min in a humidified incubator at 24° C. Subsequently, 2.5 μL of CD47 peptide substrate surrogate (^19[…]^33) was added to each well (final concentration: 10 μM for QPCTL/20 μM for QPCT). The plates were mixed for 30 sec at 1,000 rpm and subsequently incubated for 40 min in a humidified incubator at 24° C. […] The plates were sealed with an adhesive foil, mixed for 30 s at 1,000 rpm and stored at room temperature until preparation of the MALDI target plates. […] QPCT or QPCTL activity was monitored by calculating the ratio between product and internal standard signals followed by normalization to high (100% activity) and low (0% activity) controls. Determination of compound potencies was obtained by fitting the dose-response data to a four-parameter logistical equation.

QPCT = QPCT (Homo sapiens (Human), UniProt Q16769); assay: Assay A: biochemical QPCT activity assay (MALDI-TOF MS); conditions: compounds of the invention, Table 2; read-out: Inhibition of QPCT: IC50
QPCT, sequence (Q16769 29-361): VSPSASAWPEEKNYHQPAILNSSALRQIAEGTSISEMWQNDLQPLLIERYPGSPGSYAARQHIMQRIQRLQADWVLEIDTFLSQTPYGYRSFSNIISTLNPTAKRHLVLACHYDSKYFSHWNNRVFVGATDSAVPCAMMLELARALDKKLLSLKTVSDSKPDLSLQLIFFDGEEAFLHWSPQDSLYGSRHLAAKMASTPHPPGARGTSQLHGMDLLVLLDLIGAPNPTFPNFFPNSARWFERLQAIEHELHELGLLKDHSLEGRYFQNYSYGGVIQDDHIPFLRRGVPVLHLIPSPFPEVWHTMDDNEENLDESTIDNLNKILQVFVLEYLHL
Method: as §1

[4] = compounds of the invention, Table 4, read-out: Inhibition of SIRα signalling induced by A549 cells: IC50
[5] = compounds of the invention, Table 7
[6] = compounds of the invention, Table 4, read-out: Inhibition of SIRα signalling induced by Raji cells: IC50

IC50 [1, 4] | Papp A→B at 2 h [2, 5] | IC50 [3, 6] | efflux ratio at 2 h [2, 5] | IC50 (QPCTL) | IC50 (QPCT) | Papp A→B [2, 5] | efflux ratio [2, 5] | IC50 ([3]; prior art compounds, Table 5, read-out: Inhibition of SIRPα signalling induced by Raji cells: IC50) | IC50 ([1]; prior art compounds, Table 5, read-out: Inhibition of SIRPα signalling induced by A549 cells: IC50) | Papp A→B at 2 h ([2]; prior art compounds, Table 8) | Structure (SMILES)
– | – | 761 nM | – | 3 nM | 21 nM | 0.1 ×10⁻⁶ cm/s | 50.9 | – | – | – | Cn1cnnc1C1CCN(c2c(C#N)cccc2-c2cncc(C(N)=O)c2)CC1 [compound 14]
– | – | – | – | – | – | – | – | > 10000 nM | > 10000 nM | 0.7 ×10⁻⁶ cm/s | Cn1cnnc1C1CCN(S(=O)(=O)c2cccc(Nc3ccc(F)nc3)c2)CC1 [compound 21, reference compound]
530 nM | 33 ×10⁻⁶ cm/s | 1320 nM | 2.8 | – | – | – | – | – | – | – | Cn1cnnc1C1CCN(c2c(C#N)cccc2-c2cncc(-c3ccccc3)c2)CC1 [compound 21, reference compound]
342 nM | 10.1 ×10⁻⁶ cm/s | 1070 nM | 7.1 | – | – | – | – | – | – | – | Cn1cnnc1C1CCN(c2c(C#N)cccc2-c2cncc(OC(F)F)c2)CC1 [compound 23, reference compound]
– | – | 483 nM | – | 15 nM | 100 nM | 4.4 ×10⁻⁶ cm/s | 13.4 | – | – | – | COC(=O)c1cncc(-c2cccc(C#N)c2N2CCC(c3nncn3C)CC2)c1 [compound 27]
205 nM | – | 851 nM | – | – | 1 nM | 0.1 ×10⁻⁶ cm/s | 11.1 | – | – | – | Cn1cnnc1C1(F)CCN(c2c(C#N)cccc2-c2cnc(O)nc2)CC1 [compound 54]
16 nM | – | 17 nM | – | – | 1 nM | 0.5 ×10⁻⁶ cm/s | 100 | – | – | – | Cn1cnnc1C1(F)CCN(c2c(C#N)cccc2-c2cnc3nn(CC(F)F)cc3c2)CC1 [compound 60]
10 nM | – | 11 nM | – | – | – | 0.5 ×10⁻⁶ cm/s | 56.9 | – | – | – | Cn1cnnc1C1(F)CCN(c2c(C#N)cccc2-c2cnc3nc(C(C)(C)C)[nH]c3c2)CC1 [compound 69]

Second part, the compound before the results:

Structure (SMILES) | IC50 [1, 4] | Papp A→B at 2 h [2, 5] | IC50 [3, 6] | efflux ratio at 2 h [2, 5] | IC50 (QPCTL) | IC50 (QPCT) | Papp A→B [2, 5] | efflux ratio [2, 5] | IC50 ([3]; prior art compounds, Table 5, read-out: Inhibition of SIRPα signalling induced by Raji cells: IC50) | IC50 ([1]; prior art compounds, Table 5, read-out: Inhibition of SIRPα signalling induced by A549 cells: IC50) | Papp A→B at 2 h ([2]; prior art compounds, Table 8)
Cn1cnnc1C1CCN(c2c(C#N)cccc2-c2ccc(F)nc2)CC1 [Example 1] | 9 nM | 28 ×10⁻⁶ cm/s | – | – | – | – | – | – | – | – | –
Cn1cnnc1C1CCN(c2c(C#N)cccc2-c2cnc(F)c(OC3CCC3)c2)CC1 [Example 34] | 25 nM | 22 ×10⁻⁶ cm/s | 52 nM | 3.3 | – | – | – | – | – | – | –
Cn1cnnc1C1CCN(c2c(C#N)cccc2-c2cnc(F)c(OC(F)F)c2)CC1 [Example 37] | 113 nM | 23 ×10⁻⁶ cm/s | 325 nM | 2 | – | – | – | – | – | – | –
Cn1cnnc1C1CCN(c2c(C#N)cccc2-c2cnc(F)c(Oc3ccccc3)c2)CC1 [Example 38] | 98 nM | 20 ×10⁻⁶ cm/s | 372 nM | 1.9 | – | – | – | – | – | – | –
Cn1cnnc1C1CCN(c2c(C#N)cccc2-c2cnc3nn(C)c(C(F)(F)F)c3c2)CC1 [Example 41] | 97 nM | 2.9 ×10⁻⁶ cm/s | 88 nM | – | – | – | – | – | – | – | –
Cn1cnnc1C1(F)CCN(c2c(C#N)cccc2-c2cnc3nn(CC(F)(F)F)cc3c2)CC1 [Example 55] | 44 nM | 1.4 ×10⁻⁶ cm/s | 38 nM | 40 | – | – | – | – | – | – | –
Cn1cnnc1C1(F)CCN(c2c(C#N)cccc2-c2cnc(=O)n(C)c2)CC1 [Example 58] | 249 nM | < 0.3 ×10⁻⁶ cm/s | 493 nM | > 4.3 | – | – | – | – | – | – | –
Cn1cnnc1C1(C)CCN(c2c(C#N)cccc2-c2cccnc2)CC1 [Example 65] | – | 9.8 ×10⁻⁶ cm/s | 1040 nM | 4.9 | – | – | – | – | – | – | –
Cn1cnnc1C1CCN(c2c(C#N)cccc2-c2cnsc2)CC1 [compound 2] | 40 nM | – | 715 nM | – | 12 nM | 51 nM | 25 ×10⁻⁶ cm/s | 1.8 | – | – | –
Cc1cc(F)ncc1-c1cccc(C#N)c1N1CCC(c2nncn2C)CC1 [compound 4] | 13 nM | – | 88 nM | – | 2 nM | 12 nM | 16 ×10⁻⁶ cm/s | 4.1 | – | – | –
Cc1cc(-c2cccc(C#N)c2N2CCC(c3nncn3C)CC2)cnc1F [compound 5] | 26 nM | – | 93 nM | – | 3 nM | 12 nM | 23 ×10⁻⁶ cm/s | 1.6 | – | – | –
Cn1cnnc1C1CCN(c2c(C#N)cccc2-c2cnc3nonc3c2)CC1 [compound 7] | 67 nM | – | 170 nM | – | 2 nM | 12 nM | 1.5 ×10⁻⁶ cm/s | 19.3 | – | – | –
Cc1ccncc1-c1cccc(C#N)c1N1CCC(c2nncn2C)CC1 [compound 8] | 348 nM | – | 257 nM | – | 6 nM | 31 nM | 3.9 ×10⁻⁶ cm/s | 9.5 | – | – | –
Cn1cnnc1C1CCN(c2c(C#N)cccc2-c2cncc(CO)c2)CC1 [compound 9] | – | – | 309 nM | – | 11 nM | 38 nM | – | – | – | – | –
CC#Cc1cncc(-c2cccc(C#N)c2N2CCC(c3nncn3C)CC2)c1 [compound 10] | 348 nM | – | 692 nM | – | 18 nM | 75 nM | 25 ×10⁻⁶ cm/s | 2.2 | – | – | –
Cc1cncc(-c2cccc(C#N)c2N2CCC(c3nncn3C)CC2)c1 [compound 11] | 436 nM | – | 372 nM | – | 21 nM | 128 nM | 8.6 ×10⁻⁶ cm/s | 7.7 | – | – | –
Cn1cnnc1C1CCN(c2c(C#N)cccc2-c2cnc3c(c2)CCCO3)CC1 [compound 12] | 243 nM | – | 421 nM | – | 12 nM | 57 nM | 2.7 ×10⁻⁶ cm/s | 23.7 | – | – | –
